Source: US20170335402A1, “DOT1L INHIBITORS AND USES THEREOF” (Baylor College of Medicine, priority 2014, published 2017)
“Also recorded” adds a separate entry of the source.

How the values were obtained:
Format in all cases: cell-based, human
OCI AML2 cells [1] = experiment: Cell differentiation analysis, CD14 flow cytometry; conditions: 3 μM
Description: (§1) Cell differentiation analysis was performed by staining with fluorescently labeled marker for cell differentiation, CD14 followed by flow cytometry. Propidium iodide was added prior to flow cytometry analysis to exclude dead cells.
(§2) Cells were harvested at each re-plating of the cell proliferation assay described above then split for simultaneous analysis of apoptosis, cell cycle, and differentiation. Apoptosis was determined by Annexin V binding (AVB) flow cytometry assay. The harvested cells were re-suspended in 1×AVB buffer, stained with APC-conjugated Annexin V (BD), then analyzed by flow cytometry. For cell cycle analysis, cells were pelleted, washed in PBS with 0.5% bovine serum albumin, then fixed in 70% ice-cold methanol. The fixed cells were then incubated in PBS with 100 μg/mL RNAse (Invitrogen) for 15 minutes in a 37° C. water bath. Propidium iodide (PI) in PBS at a final concentration of 25 μg/mL was then added and the cells were analyzed by flow cytometry. For differentiation, cells were pelleted, and stained with APC-conjugated CD14 then washed and re-suspended in media containing PI to exclude dead cells. All analyses were performed using an LSR II flow cytometer (BD biosciences) and the data were analyzed using FlowJo (TreeStar, V8.8.7).

OCI AML3 cells [2] = experiment: Cell differentiation analysis, CD14 flow cytometry; conditions: 3 μM
Description: as §1, §2

[3] = tested on: H3K79me2 in OCI AML3 cells; experiment: Immunoblot analysis of cellular H3K79 methylation
HL60 cells [4] = experiment: Cell proliferation and viability assay (trypan blue exclusion); conditions: HL60 (MLL- and DNMT3A-wild-type, negative control); 3 μM, 14 days
Description: Exponentially growing cells were plated, in triplicate, in 24-well plates at a density of 2×10^5/mL in a final volume of 1 mL. For dose dependent assays, cells were incubated in increasing concentrations of SYC522 up to 10 μM or EPZ004777 up to 24 μM or DMSO control. For time-dependent assays, cells were incubated in 3 μM EPZ004777 or DMSO control. Every 2-3 days media and compound was replaced and cells were split back to a density of 2×10^5/mL. At each re-plating viable cells number was determined by trypan blue exclusion. Total cell number is expressed as split-adjusted viable cells per mL.

[5] = tested on: normal CD34+ cells isolated from cord blood; experiment: Colony-forming cell assay; conditions: 3 μM
OCI AML2 cells [6] = experiment: Quantitative RT PCR of leukemogenic gene expression; conditions: 3 μM
Description: (§3) RNA was extracted from OCI AML2 and OCI AML3 cells treated with 3 μM EPZ004777 or DMSO control using RNeasy RNA isolation kit (Qiagen) per manufacturer's protocol. RNA was quantified using Nanodrop instrument and 300-1000 ng (equal quantities for EPZ004777 treated and DMSO controls) of RNA were reverse transcribed using the SuperScript® III First-Strand Synthesis System (Invitrogen). Reverse transcription quantitative PCR was then performed in triplicate using predesigned TaqMan primer and probe sets for HOXA9 (Hs00365956_m1), MEIS1 (Hs01017441_m1), HOXB8 (Hs00256885_m1), HOXB3 (Hs01587922_m1), and GAPDH (Hs02758991_ml) (FAM-MGB; Applied Biosystems) for 30 cycles using an AbiPrism 7900HT (Applied Biosystems). Target gene numbers were normalized to the ribosomal RNA 18s (VIC-MGB; Applied Biosystems) and fold-change determined by the 2^−ΔΔCT equation.

OCI AML3 cells [7] = experiment: as above; conditions: 3 μM
Description: as §3

HL60 cells [8] = experiment: Annexin V binding (AVB) flow cytometry apoptosis assay; conditions: 3 μM
Description: as §2

CC(C)N(CCCNC(=O)Nc1ccc(C(C)(C)C)cc1)C[C@H]1O[C@@H](n2ccc3c(N)ncnc32)[C@H](O)[C@@H]1O [EPZ004777]
differentiation, CD14 expression (OCI AML2 cells [1]): increased expression of the mature monocyte marker, CD14; also recorded: increased expression of the mature monocyte marker CD14; also recorded: significant increase in CD14-positive cells
differentiation, CD14 expression (OCI AML3 cells [2]): increased expression of the mature monocyte marker, CD14; also recorded: increased expression of the mature monocyte marker CD14; also recorded: significant increase in CD14-positive cells
cellular H3K79 methylation [3]: inhibited in a dose- and time-dependent fashion
cell growth (HL60 cells [4]): no impact on the growth
colony-forming capacity (CFC) [5]: did not significantly impact
expression of GAPDH (housekeeping gene) (OCI AML2 cells [6]): not affected
expression of HOXA9 (OCI AML2 cells [6]): reduced the expression
expression of MEIS1 (OCI AML2 cells [6]): reduced the expression
expression of GAPDH (housekeeping gene) (OCI AML3 cells [7]): not affected
expression of HOXB cluster genes (OCI AML3 cells [7]): reduced the expression
expression of MEIS1 (OCI AML3 cells [7]): reduced the expression
induction of apoptosis (Annexin V binding) (HL60 cells [8]): no induction of apoptosis
